Laboratory results as given in paper PMC5847527, “Identification of a novel 2-oxindole fluorinated derivative as in vivo antitumor agent for prostate cancer acting via AMPK activation” (Scientific Reports, 2018).

Test system: PC-3 and LNCaP cells
Experiment: MTT cell viability in PC-3 and LNCaP cells under AMPK inhibition or knocking down
Type: cell-based, human
Settings: α1AMPK-selective siRNA
Description: Figure 5 AMPK activation by compound 8c in prostate cancer cells. (A) PC-3 and LNCaP cells were treated with vehicle, 25 µM compound 8c, 25 µM compound 8c + 5 μM Dorsomorphin (8c + D) or 5 μM Dorsomorphin (D), for 1 hour or 24 hours and levels of the phosphorylated AMPK (pAMPK), phosphorylated ACC (pACC), phosphorylated Raptor (pRaptor) forms and HIF1α were determined by Western blot. Upper panel, representative Western blot of three different experiments. β-tubulin (β-Tub) serves as a loading control. Lower panel, densitometric analyses of bands represented as the mean of the ratio pAMPK/AMPK or pACC/ACC. (B) Cell viability monitored by MTT assay in PC-3 and LNCaP cells treated with vehicle, 25 µM and 50 μM compound 8c alone or in the presence of 5 μM Dorsomorphin or transfected with control siRNA (siC) or α1AMPK-selective siRNA (siAMPK). (C) LNCaP cells were treated with vehicle, 25 µM compound 8c, 25 µM compound 8c + 5 μM Dorsomorphin (8c + D) or 5 μM Dorsomorphin (D), for 24 hours and levels of Androgen Receptor (AR), Prostate specific antigen (PSA) and Prostate specific membrane antigen (PSMA) were determined by Western blot.Values were normalized with the control and represent the mean ± SD of at least three independent experiments. *p < 0.05 and **p < 0.01 compared to control and ^#p < 0.05 and ^##p < 0.01 compared with 8c-treated group by the Student’s t-test. […]

**Q.** `O=C1Nc2ccccc2C1(F)Cc1ccc(-c2ccccc2)o1` (stereo not shown) [Compound 8c, 3-fluoro-3-((5-phenylfuran-2-yl)methyl)indolin-2-one] was tested. Which “cell death with AMPK silencing by specific siRNA” value did it give?
**A.** prevented 8c-induced cell death
